Test results from US20220339257A1, “METHODS TO INCREASE THE SENSITIVITY AND REVERSING THE RESISTANCE TO DRUGS” (Biomarker Strategies, LLC, priority 2019, published 2022).

B1: interferon-alpha-1 (protein, UniProt P01562 24-189, looked up)
Interferon alpha-1/13: CDLPETHSLDNRRTLMLLAQMSRISPSSCLMDRHDFGFPQEEFDGNQFQKAPAISVLHELIQQIFNLFTTKDSSAAWDEDLLDKFCTELYQQLNDLEACVMQEERVGETPLMNADSILAVKKYFRRITLYLTEKKYSPCAWEVVRAEIMRSLSLSTNLQERLRRKE
notes: enhancer molecule, cytokine purchased from Sigma

Legend:
Assay type in all cases: cell-based
H1581 (EGFR WT) = assay: MTT cell survival assay; details: EM2 (10, 30, 50 ng/ml) combined with Erlotinib 7 μM; Erl-resistant EGFR WT cells
Protocol: (§1) Cells (10^4 cells/well) were grown in 96-well plates and exposed for 72 hours to different doses of erlotinib, alone or in combination with EM2. The percentage of cell survival was determined using the 3-(4, 5-dimethylthiazol-2-yl)-2, 5-diphenyltetrazolium bromide (MTT). Single drug alone and vehicle were kept as controls.

[1] = tested on: H1975 (EGFR-double mutant line); assay: MTT cell survival assay; details: EM2 10 ng/ml combined with erlotinib; Erl-resistant H1975; 72 hours
Protocol: as §1

[2] = tested on: HCC827 (EGFR deletion mutant line); assay: MTT cell survival assay; details: 10 ng/ml of EM2 combined with erlotinib, 72 hours
Protocol: as §1

Ca-922 cell line = assay: HoPI live cell staining; design: concentration or dose not given beside the values; details: 24 hours
Excerpt: A double stain of Hoechst 33342 and propidium iodide allows for the determination of cell viability with high specificity and low background noise, as compared to trypan blue staining. Hoechst 33342 is a cell permeable blue fluorescent nuclear stain which will stain all cell types. Propidium iodide is a cell impermeable red fluorescent nuclear stain that will only bind to the nuclei of cells with compromised membranes (dead cells). The staining can be performed rapidly on live cell suspensions within 15 minutes. 25 uL of 4× Hoechst 33342 Solution (40 ug/mL) and 25 uL of 4×Propidium Iodide Solution are added to 50 uL of cell suspension. The suspension was gently mixed 10 times and 50 uL was immediately transferred to a microfluidic cell counting chip. A 365 nm LED was used to excite both Hoechst 33342 and propidium iodide. Images of the cells were captured using a 10× objective lens on an Olympus microscope using a Canon EOS 6D camera using an ISO of 800 and an exposure of 2 seconds; both JPEG and RAW images were saved for analysis. The blue channel was used to measure the total number of cells and the red channel was used to measure the number of dead cells. Cell counting was performed automatically by the Image Pro software (Media Cybernetics, Inc).
MTA and EM effects on apoptosis were measured by Hoechst-Propidium Iodide staining (HoPI). For the assay, cells were seeded in 6-well plates at 400K cells per well, in 2 mL of 10% FBS-containing media and incubated for 24 hours. At 24 hours, a 1 nM to […] range of MTA and/or 1 ng/mL to 1 mg/mL range of EM doses was added and incubated for 24 hours. After 24 hours incubation respective cells' media was collected, added the 1× HBSS wash from the plate in the respective tube. Adherent cells were detached by treating with Accutase for 6 minutes and collected in respective tubes. All samples were centrifuged for 5 minutes at 1200 RPM. The cell pellets were resuspended in PBS and centrifuged again for 5 minutes at 1200 RPM. Cell pellets were resuspended in 200 uL of PBS and mixed properly to get single cell suspension. 50 uL of cell suspension was added into separate tubes having 10 uL of a 2× HOPI solution (20 ug/mL Hoechst 33342 and 20 ug/mL propidium iodide solution) to get a final concentration of Hoechst 33342 and propidium iodide to […]. Make up the volume to 100 uL with 40 uL of PBS. Samples were mixed thoroughly for even cell staining and the microfluidsic chip wells were each filled with 10 uL of sample. Chips were then incubated in the dark for 20 minutes. A 365 nm LED was used to excite both Hoechst 33342 and propidium iodide as they were visualize under a microscope. Cell images were captured using a 10× objective lens on an Olympus microscope using a Canon EOS 6D camera with an ISO of 800 and an exposure of 2 seconds; both JPEG and RAW images were saved for analysis. The blue channel was used to measure the total number of cells and the red channel was used to measure the number of dead cells. For image analysis, a copy of the image was created and converted directly into an 8-bit gray scale image. A threshold was placed on the image to create a binary mask; the threshold level was 20 intensity units out of 255 intensity units. Next, a particle analysis algorithm was applied to the binary mask and a set of cellular regions (between 100 to 800 cellular regions per image) was created. The original image was then split into red, green and blue channels. The area, mean intensity, standard deviation of the mean intensity, minimum intensity, maximum intensity and perimeter were measured for each cellular region in the red channel and also in the blue channel. The green channel was discarded. To discern between live and dead cells, the maximum intensity in the red channel was used with a threshold of 100 intensity units. Double plots were created using the intensity of the blue channel (X-axis) and the intensity of the red channel (Y-axis). […]

[3] = tested on: panel of cell lines that included NSCLC, HNSCC, melanoma, and CRC; assay: WST8 in vitro sensitivity to MTAs with and without EM
Protocol: Day 1: cells were harvested cells from flask (4 mL accutase for T175 for 3-5 minutes), and spin down for 5 mins at 1200 rpm. The supernatant was poured off, and the pellet gently resuspended in 1 mL media. Countess counts were performed, and the cells were diluted in media (10% FBS). With multi-channel pipette, 2500 cells were seeded in 100 uL of media (10% FBS) in each well of 96 well plate. The cells were let to adhere and grow for 24 hours. Day 2: serial drug dilutions of MTAs+/−EMs at 5× of concentrations (as done above) were performed in media (10% FBS). 20 uL of media form each well of the 96 well plate (80 uL media left in wells) was removed, and 20 uL of appropriate 5× drug dilutions was added to each respective well (for a 1× conc). The cells were incubated with drug for 72 hours in 37C incubator. Day 5: 10 uL of WST-8 reagent was added to each well of the 96 well plate and mixed gently. the plates were incubated up to 4 hours at 37C in dark, and absorbance readings were taken at […] and 600 nm wavelengths at 1, 2, 3 and 4h, until control absorbance levels were 1.5-2.0).
We used a panel of cell lines that included NSCLC, HNSCC, melanoma, and CRC. These cell lines are a good model system harboring similar (epi)genetic changes found in patients' tumors. We used the WST8 assay to determine the in vitro sensitivity to various MTAs with and without EM1.

Row | Molecule | cell survival (MTT), sensitization to erlotinib (H1581 (EGFR WT)) | cell survival (MTT), response to erlotinib [1] | cell survival (MTT), sensitivity to erlotinib [2] | reduction in the number of live cells (HoPI) (Ca-922 cell line; osimertinib and TNFa in combination) | reduction in the number of live cells (HoPI) (Ca-922 cell line; single agent) | response enhancement (in vitro sensitivity to various MTAs with and without EM, WST8) [3] | reduction in the number of live cells (HoPI) (Ca-922 cell line; GSK458 and IFNa in combination)
1 | tumor necrosis factor-alpha [EM2] | sensitized to Erl | enhanced response | increased sensitivity to Erl | 67% | 21% | no, minimal and strong response enhancement | –
2 | B1 | – | – | – | – | 24% | – | 26%
